# Assay results reported in patent US8697668B2, “Compositions and methods for preventing and treating cancer via modulating UBE1L, ISG215 and/or UBP43” (Trustees of Dartmouth College, priority 2002, dated 2014).
# Read-outs that look alike come from different tables or passages of the source. Where a SMILES comes first, the peptide text is derived from it. [ ]: non-standard residue; d: D form. Nle = CCCC[C@H](N)C(=O)O
# How the values were obtained:
# [1] = test system: ISG15; test: ISG15 expression and conjugation in NB4 cells; assay type: cell-based
# [2] = test system: UBE1L; test: UBE1L immunoblot expression in NB4 cells; assay type: cell-based; details: NB4-S1 APL cells, RA 1 μM
# Text: Two rabbit polyclonal antibodies against UBE1L were independently derived (Covance Research Products, Denver, Pa.) using one peptide within the amino terminus (Asp-Cys-Asp-Pro-Arg-Ser-Ile-His-Val-Arg-Glu-Asp-Gly-Ser-Leu-Glu-Ile-Gly-Asp (SEQ ID NO:10)) and a second peptide within the carboxyl terminus (Pro-Gly-Ser-Gln-Asp-Trp-Thr-Ala-Leu-Arg-Glu-Leu-Leu-Lys-Leu-Leu (SEQ ID NO:11)). Specificities of these antisera were confirmed by immunoblot analyses of UBE1L-transfected CHO cells.
# Immunoblot analyses were performed using established techniques (Langenfeld, et al. (1997) Proc. Natl. Acad. Sci. USA 94:12070-12074; Spinella, et al. (1999) J. Biol. Chem. 274:22013-22018). Anti-RARα antibody was provided by and can be purchased from P. Chambon (Institut National de la Sant et de la Recherche Mdicale, Strasbourg, France) to detect PML/RARα (Nason-Burchenal, et al. (1998) Blood 92:1758-1767; Nason-Burchenal, et al. (1998) Oncogene 17:1759-1768). An anti-HA mAb was purchased (Babco, Richmond, Calif.) as was an anti-actin polyclonal antibody, C-11 (Santa Cruz Biotechnology, Santa Cruz, Calif.).
# [3] = test system: E1; test: E1 mRNA expression in NB4-S1 cells; assay type: cell-based; details: RA 1 μM
# [4] = test system: UBE1L; test: UBE1L mRNA expression, reverse transcription-PCR in NB4 APL cells; assay type: cell-based; details: 10 μM RA
# Procedure: (§1) The NB4 APL cell line expresses PML/RARα (Lanotte, et al. (1991) Blood 77:1080-1086). NB4-S1 and NB4-R1 are RA-sensitive and RA-resistant clones of NB4 cells, respectively (Nason-Burchanel, et al. (1997) Differentiation 61:321-331). These cells were cultured in RPMI-1640 medium supplemented with 10% FBS (see, Nason-Burchenal et al. (1997) supra).
# UBE1L mRNA expression was assessed by a reverse transcription-PCR assay in accordance with established methods (Kakizuka et al. (1991) Cell 68:663-674). The forward primer was 5′-AGGTGGCCAAGAACTTGGTT-3′ (SEQ ID NO:8), and the reverse primer was 5′-CACCACCTGGAAGTCCAACA-3′ (SEQ ID NO:9). The PCR product was visualized by probing with a ^32P-labeled primer. Results were confirmed independently by Northern analysis using a 1.0-kb EcoRI/NcoI-radiolabeled UBE1L probe in accordance with standard techniques (Langenfeld et al. (1997) Proc. Natl. Acad. Sci. USA 94:12070-12074). This probe had limited homology to E1.
# [5] = test system: NB4-S1 APL cells; test: NBT reduction maturation (differentiation) assay; assay type: cell-based; details: 5 days treatment with RA (1 μM)
# Procedure: as §1
# NB4 cell differentiation was scored by using the nitroblue tetrazolium (NBT) reduction assay (Nason-Burchenal, et al. (1997) supra; Nason-Burchenal, et al. (1998a) Blood 92:1758-1767; Nason-Burchanel, et al. (1998b) Oncogene 17:1759-1768) Transductants were identified by green fluorescent protein (GFP) coexpression. Apoptosis was scored by using established techniques and Hoechst staining of transductants that co-expressed GFP (Nason-Burchenal, et al. (1998a) supra; Nason-Burchenal, et al. (1998b) supra; Stadheim, et al. (2001) Cancer Res. 61:1533-1540). Digital images were collected using an OLYMPUS 1×70 inverted microscope, a cooled charge-coupled device camera, and a MIRACAL Pro Single Cell Imaging System (OLYMPUS LSR Research, Melville, N.Y.).
# [6] = test system: cyclin D1; test: Cyclin D1 immunoblot in H358 cells; assay type: cell-based
# Procedure: (§2) The H358 lung cancer cell line was cultured in RPMI-1640 medium (INVITROGEN Corporation, Carlsbad, Calif.) containing L-glutamine, 10% fetal bovine serum and 1% antibiotic-antimycotic solution (CELLGRO, Herndon, Va.) (Petty, et al. (2004) Clin. Cancer Res. 10:7547-54). Cells were incubated at 37° C. in a humidified incubator with 5% CO2. Bexarotene treatments of HBE and lung cancer cells were accomplished according to known methods (Dragnev, et al. (2007) Clin. Cancer Res. 13:1794-800; Dragnev, et al. (2005) J. Clin. Oncol. 23:8757-64).
# (§3) Cells were lysed with ice-cold radioimmunoprecipitation (RIPA) lysis buffer, using established techniques (Pitha-Rowe, et al. (2004) supra; Pitha-Rowe, et al. (2004) supra; Feng, et al. (2007) supra; Ma, et al. (2005) Cancer Res. 65:6476-83). Lysates were size-fractionated by sodium dodecyl sulphate-polyacrylamide gel electrophoresis (SDS-PAGE) assays before transfer to nitrocellulose membranes (Schleicher & Schuell Bioscience, Inc., Keene, N.H.). The polyclonal antibody recognizing the UBE1L amino terminus of UBE1L was used for immunoblot and immunohistochemical assays. […] Quantification of signal intensities was scored as before (Shah, et al. (2008) supra; Feng, et al. (2007) supra; Ma, et al. (2005) supra). […]
# [7] = test system: cyclin D1; test: Cyclin D1 immunoblot in BEAS-2B cells; assay type: cell-based, human
# Procedure: as §2, §3
# [8] = test system: ISG15; test: ISG15 immunohistochemical expression, post- versus pretreatment lung cancer biopsies; assay type: in vivo; details: post- and pre-bexarotene treatment biopsies of the lung cancer cases
# Text: (§4) Paraffin-embedded and formalin-fixed tissues were obtained from an Institutional Review Board-approved proof of principle bexarotene lung cancer trial (Dragnev, et al. (2007) supra). Tissues were examined for cyclin D1 (Petty, et al. (2004) supra; Dragnev, et al. (2007) supra; Dragnev, et al. (2005) supra), UBE1L (Pitha-Rowe, et al. (2004) supra), ISG15 (Andersen, et al. (2006) Br. J. Cancer 94:1465-71), and Ki-(Petty, et al. (2004) supra; Dragnev, et al. (2007) supra; Dragnev, et al. (2005) supra) immunohistochemical expression profiles.
# [9] = test system: Ki-67; test: Ki-67 immunostaining (proliferation), post- versus pretreatment lung cancer biopsies; assay type: in vivo
# Text: as §4
# [10] = test system: cyclin D1; test: Cyclin D1 immunohistochemical expression, post- versus pretreatment lung cancer biopsies; assay type: in vivo
# Text: as §4
# [11] = test system: BEAS-2B human bronchial epithelial cells; test: Clonal growth assay; assay type: cell-based; details: bexarotene treatment, FIG. 2
# Procedure: Human bronchial epithelial cells (BEAS-2B) were cultured in serum-free LHC-9 medium (Biofluids, Rockville, Md.) in accordance with established techniques (Langenfeld, et al. (1997) Proc. Natl. Acad. Sci. USA 94:12070-12074; Boyle, et al. (1999) J. Natl. Cancer Inst. 91:373-379).
# Five μg of MSCVIRES-UBE1L-GFP and an empty vector were independently transfected into the Phoenix Amphotropic packaging cell line (ATCC, Manassas, Va.) using EUGENE 6 (Roche, Indianapolis, Ind.), and the vendor's recommended procedures. Forty-eight hours later, viral supernatants were […] respective transduced BEAS-2B HBE or H358 lung cancer cells with 4 μg/ml POLYBRENE (Sigma). Forty-eight hours later, cells positive for GFP expression were harvested using a FACSTAR Plus (Becton Dickinson, San Jose, Calif.) high speed sorting cytometer. This was repeated one week later to enrich for studied transductants.
# Clonal growth assays (Langenfeld, et al. (1996) Oncogene 13:1983-90) were performed using 5×10^2 BEAS-2B and 1×10^3 H358 cells. These cells were independently engineered to over-express UBE1L or a control vector. […] Two weeks later, visible colonies were fixed and stained with DIFF QUIK solution (Baxtor, McGaw Park, Ill.) and quantified with the Col Count instrument (Oxford Optronix, Oxford, UK).
# [12] = test system: UBE1L; test: UBE1L immunohistochemical expression, post- versus pretreatment lung cancer biopsies; assay type: in vivo
# Text: as §4
# [13] = test system: UBE1L; test: UBE1L immunoblot in BEAS-2B cells; assay type: cell-based, human; details: 1 μM, 10 days treatment versus vehicle
# Procedure: as §2, §3
# [14] = cited from earlier work
# [15] = test system: ISG15-conjugated cyclin D1; test: Immunoprecipitation/immunoblot of ISG15-cyclin D1 conjugates in BEAS-2B cells; assay type: cell-based, human; details: BEAS-2B cells co-transfected with UBE1L, ISG15 and cyclin D1
# Text: Cells were lysed with ice-cold radioimmunoprecipitation (RIPA) lysis buffer, using established techniques (Pitha-Rowe, et al. (2004) supra; Pitha-Rowe, et al. (2004) supra; Feng, et al. (2007) supra; Ma, et al. (2005) Cancer Res. 65:6476-83). Lysates were size-fractionated by sodium dodecyl sulphate-polyacrylamide gel electrophoresis (SDS-PAGE) assays before transfer to nitrocellulose membranes (Schleicher & Schuell Bioscience, Inc., Keene, N.H.). The polyclonal antibody recognizing the UBE1L amino terminus of UBE1L was used for immunoblot and immunohistochemical assays. Other primary antibodies for immunoblot assays included a rabbit polyclonal antibody recognizing cyclin D1 (M-20) (Santa Cruz Biotechnology, Santa Cruz, Calif.), a murine monoclonal antibody against hemagglutinin (HA)-tagged proteins (Babco, Richmond, Calif.) and a goat polyclonal antibody recognizing actin (Santa Cruz Biotechnology). Anti-mouse and anti-rabbit antisera were purchased (Amersham Biosciences, Piscataway, N.J.) as was anti-goat antisera (Santa Cruz Biotechnology) and these were used as respective secondary antibodies. Membranes used for immunoblot analyses were treated with the MEMCODE reversible stain (Pierce, Rockford, Ill.). […] Quantification of signal intensities was scored as before (Shah, et al. (2008) supra; Feng, et al. (2007) supra; Ma, et al. (2005) supra). […]
# [16] = case with low bexarotene levels
# [17] = lung cancer case with high levels
# [18] = representative lung cancer case with low levels
compound,measurement,setting,value
"CC1=C(/C=C/C(C)=C/C=C/C(C)=C/C(=O)O)C(C)(C)CCC1 [RA, All-trans-retinoic acid]",ISG15 expression,[1]; RA-sensitive NB4 cells,augments
same,intracellular ISG15 conjugation,[1]; retinoid-sensitive NB4 cells,increases
same,UBE1L protein expression,[2],induced
same,E1 mRNA,[3],not induced
same,UBE1L expression,"[4]; RA-resistant NB4-R1 cell line, same time period",not induced
same,UBE1L mRNA induction,"[4]; RA-sensitive NB4-S1 cells, reverse transcription-PCR",induction occurred by three hours
same,"NBT, %",[5],92%
C=C(c1ccc(C(=O)O)cc1)c1cc2c(cc1C)C(C)(C)CCC2(C)C [Bexarotene],cyclin D1 protein,[6],repressed
same,cyclin D1 protein,[7],repressed
same,ISG15 immunohistochemical expression,[8],similar
same,"proliferation, Ki-67 immunostaining","[9]; case with high bexarotene levels, post-versus pretreatment biopsies",decrease
same,Repression of Ki-67 immunostaining,[9]; [16],not observed
same,cyclin D1 expression in post-versus pre-treatment biopsies,[10]; case with high bexarotene plasma and intratumoral levels,declined
same,cyclin D1 immunohistochemical expression profile,[10]; [16],not appreciably altered
same,BEAS-2B clonal growth,[11],dose-dependent decline
same,BEAS-2B clonal growth,[11]; listed as bexarotene,Dose-dependent inhibition
same,"odds ratio, association between intratumoral bexarotene concentration and UBE1L increase","[12]; 95% asymptotic CI 0.1, 354.9",6
same,UBE1L immunohistochemical expression,[12]; case with high bexarotene levels,increase
same,UBE1L immunohistochemical expression profile,[12]; [16],not appreciably altered
same,response rate for UBE1L,"[12]; five cases examined, 95% CI 1, 72",20%
same,UBE1L expression,[13],prominently increased
same,bexarotene intratumoral level,[14]; [17],0.31 µM
same,bexarotene plasma level,[14]; [17],1.49 µM
same,bexarotene intratumoral level,[14]; [18],0.09 µM
same,bexarotene plasma level,[14]; [18],0.13 µM
CCCC[C@@H](C=O)NC(=O)[C@H](CC(C)C)NC(=O)[C@H](CC(C)C)NC(C)=O [ALLN] (Ac-Leu-Leu-[Nle]-aldehyde),ISG15ylated cyclin D1 species,[15],stabilized
